Data: patent publication US20210115104A1, “AMYLIN ANALOGUES” (Zealand Pharma A/S, priority 2015, published 2021)
*1 amine or outer side, *2 acyl side, *3 side chain or, on linkers, in order; H or OH if unused. Where a SMILES comes first, the peptide text is derived from it. Bridges are numbered along the chain shown (N, C = ends). [ ]: non-standard residue; d: D form. The star is where a group is joined. C20 diacid = O=C(O)CCCCCCCCCCCCCCCCCCC(=O)*; γGlu = O=C(O)[C@H](CCC(=O)[*:2])N[*:1]; Hyp = O=C(O)[C@@H]1C[C@@H](O)CN1; NMeI = CC[C@H](C)[C@H](NC)C(=O)O; Aad = N[C@@H](CCCC(=O)O)C(=O)O; Sar = CNCC(=O)O

Experiments:
[1] = Assessment of chemical stability (RP-HPLC normalized purity); type: physicochemical; settings: 7 days, 40° C., Table 1; for Normalized purity after 7 days, 40° C., pH 4: pH 4, 0.2 mg/ml; for Normalized purity after 7 days, 40° C., pH 6: pH 6, 0.2 mg/ml; for Normalized purity after 7 days, 40° C., pH 7.5: pH 7.5, 0.2 mg/ml; for Normalized purity after 7 days, 40° C., pH 9: pH 9, 0.2 mg/ml
Summary of the method: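 Purity after 7 days at 40° C is expressed relative to T=0 (set to 100) for each pH. Samples at 0.2 mg/ml, pH 4, 6, 7.5 or 9, analyzed by RP-HPLC with UV 220 nm on C8 (ammonium formate) or C18 (TFA) gradients.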

[2] = target: T1, human amylin receptor 3 (hAMYR3), hCTR2 co-expressed with hRAMP3 (Homo sapiens, UniProt O60896+P30988); test: hAMYR3 cAMP assay (AlphaScreen) in COS7 cells; type: cell-based; settings: cAMP induction, COS7 cells expressing hAMYR3; Table 1; read-out: hAMYR3 EC50
T1 construct: expressed in transfected cells
T1 sequence (P30988 25-474): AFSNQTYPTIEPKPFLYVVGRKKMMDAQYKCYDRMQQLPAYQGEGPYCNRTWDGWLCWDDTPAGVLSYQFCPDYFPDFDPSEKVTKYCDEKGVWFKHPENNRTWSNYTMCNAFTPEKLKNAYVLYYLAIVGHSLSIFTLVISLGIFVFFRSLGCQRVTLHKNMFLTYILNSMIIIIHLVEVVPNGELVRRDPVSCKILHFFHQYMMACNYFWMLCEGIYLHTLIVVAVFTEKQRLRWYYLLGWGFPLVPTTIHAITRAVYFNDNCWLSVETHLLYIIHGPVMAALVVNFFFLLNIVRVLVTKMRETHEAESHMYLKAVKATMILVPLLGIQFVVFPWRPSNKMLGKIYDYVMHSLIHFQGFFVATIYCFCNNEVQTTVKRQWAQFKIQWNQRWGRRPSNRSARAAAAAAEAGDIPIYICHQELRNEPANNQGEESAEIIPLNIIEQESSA
T1 sequence (O60896 24-148 partner): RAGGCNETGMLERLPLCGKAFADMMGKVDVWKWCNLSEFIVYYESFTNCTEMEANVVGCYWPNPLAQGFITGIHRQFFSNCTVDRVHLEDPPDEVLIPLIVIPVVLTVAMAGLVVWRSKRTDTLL
Summary of the method: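 EC50 values derive from 4PL curve fits of cAMP (AlphaScreen) in lysates of RAMP-naive COS7 cells stably carrying hCTR2 plus hRAMP3. Peptide dilution series were applied for 15 min at 37 °C in pH 7.4 Tyrode buffer containing 100 µM IBMX and 0.1% casein.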

[3] = target: T2, human calcitonin receptor (hCTR2) (Homo sapiens, UniProt P30988); test: hCTR2 cAMP assay (AlphaScreen) in COS7 cells; type: cell-based; settings: cAMP induction, COS7 cells expressing hCTR2; Table 1; read-out: hCTR2 EC50
T2 construct: expressed in transfected cells
T2 sequence (P30988 25-474): T1 sequence (P30988 25-474)
Summary of the method: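 cAMP induction, read by AlphaScreen after lysis, gives EC50 values via 4PL curve fitting. Peptides were applied at rising concentrations for 15 min at 37 °C, with IBMX and 0.1% casein in HEPES-buffered Tyrode pH 7.4, to COS7 cells (no endogenous RAMPs) stably expressing human CTR2.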

[4] = Assessment of physical stability (Thioflavin T fibrillation); type: physicochemical; set-up: key: FND = fibrillation not detected; FD = fibrillation detected; settings: 1 mg/ml, 40° C., ThT; for Fibrillation pH 4.0 (Ac): 50 mM acetate buffer pH 4.0, 96 hours; for Fibrillation pH 7.0 (His): 50 mM histidine buffer pH 7.0, 96 hours; for Fibrillation pH 7.0 (Phos.): 50 mM phosphate buffer pH 7.0, 96 hours
Summary of the method: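 Fibrillation lag-time, in hours, taken where regressions of the initial stable phase and the growth phase intersect. ThT (40 μM) fluorescence monitored at 40 °C for 96 h, 10-min reads each preceded by 300 s mixing. Peptide at 1 mg/ml in 50 mM buffers: phosphate or histidine pH 7.0, acetate pH 4.0.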

Row | Structure (SMILES) | Normalized purity after 7 days, 40° C., pH 4 [1] | Normalized purity after 7 days, 40° C., pH 6 [1] | Normalized purity after 7 days, 40° C., pH 7.5 [1] | Normalized purity after 7 days, 40° C., pH 9 [1] | EC50 [2] [pM] | EC50 [3] [pM] | Fibrillation pH 4.0 (Ac) [4] | Fibrillation pH 7.0 (His) [4] | Fibrillation pH 7.0 (Phos.) [4]
1 | CC[C@H](C)[C@@H](C(=O)N[C@@H](CC(C)C)C(=O)N[C@@H](CO)C(=O)N[C@@H](CO)C(=O)N[C@H](C(=O)N[C@@H](CCC(=O)O)C(=O)N[C@H](C(=O)NCC(=O)N[C@@H](CO)C(=O)NCC(=O)N[C@H](C(=O)N1C[C@H](O)C[C@H]1C(N)=O)[C@@H](C)O)C(C)C)[C@@H](C)O)N(C)C(=O)[C@H](C)NC(=O)CN(C)C(=O)[C@H](Cc1ccccc1)NC(=O)[C@H](CO)NC(=O)[C@H](CO)NC(=O)[C@H](CCCNC(=N)N)NC(=O)[C@H](CCC(N)=O)NC(=O)[C@H](CC(C)C)NC(=O)[C@H](Cc1ccccc1)NC(=O)[C@H](Cc1c[nH]cn1)NC(=O)[C@H](C)NC(=O)[C@H](CC(C)C)NC(=O)[C@H](CCCNC(=N)N)NC(=O)[C@H](CCC(=O)O)NC(=O)[C@@H](NC(=O)[C@H](C)NC(=O)[C@@H]1CSSC[C@H](NC(=O)[C@H](CCCNC(=N)N)NC(=O)CC[C@H](NC(=O)CCCCCCCCCCCCCCCCCCC(=O)O)C(=O)O)C(=O)NCC(=O)N[C@@H]([C@@H](C)O)C(=O)N[C@@H](C)C(=O)N[C@@H]([C@@H](C)O)C(=O)N1)[C@@H](C)O [Compound 52, [19CD]-isoGlu-R-C( )-GTAT-C( )-ATERLAHFLQRSSF-Gly(Me)-A-Ile(Me)-LSSTEVGSGT-Hyp-NH2] ({C20 diacid-γGlu}-RCGTATCATERLAHFLQRSSF[Sar]A[NMeI]LSSTEVGSGT[Hyp]-NH2; disulfide 2-7) | A (A = >90%) | B (B = 70-90%) | B (B = 70-90%) | B (B = 70-90%) | 90 | 70 | FND | FND | FND
2 | CC[C@H](C)[C@@H](C(=O)N[C@@H](CC(C)C)C(=O)N[C@@H](CO)C(=O)N[C@@H](CO)C(=O)N[C@H](C(=O)N[C@@H](CCC(=O)O)C(=O)N[C@H](C(=O)NCC(=O)N[C@@H](CO)C(=O)N[C@@H](CCCC(=O)O)C(=O)N[C@H](C(=O)N1C[C@H](O)C[C@H]1C(N)=O)[C@@H](C)O)C(C)C)[C@@H](C)O)N(C)C(=O)[C@H](C)NC(=O)CN(C)C(=O)[C@H](Cc1ccccc1)NC(=O)[C@H](CO)NC(=O)[C@H](CO)NC(=O)[C@H](CCCNC(=N)N)NC(=O)[C@H](CCC(N)=O)NC(=O)[C@H](CC(C)C)NC(=O)[C@H](Cc1ccccc1)NC(=O)[C@H](Cc1c[nH]cn1)NC(=O)[C@H](C)NC(=O)[C@H](CC(C)C)NC(=O)[C@H](CCCNC(=N)N)NC(=O)[C@H](CCC(=O)O)NC(=O)[C@@H](NC(=O)[C@H](C)NC(=O)[C@@H]1CSSC[C@H](NC(=O)[C@H](CCCNC(=N)N)NC(=O)CC[C@H](NC(=O)CCCCCCCCCCCCCCCCCCC(=O)O)C(=O)O)C(=O)NCC(=O)N[C@@H]([C@@H](C)O)C(=O)N[C@@H](C)C(=O)N[C@@H]([C@@H](C)O)C(=O)N1)[C@@H](C)O [Compound 53, [19CD]-isoGlu-R-C( )-GTAT-C( )-ATERLAHFLQRSSF-Gly(Me)-A-Ile(Me)-LSSTEVGS-Aad-T-Hyp-NH2] ({C20 diacid-γGlu}-RCGTATCATERLAHFLQRSSF[Sar]A[NMeI]LSSTEVGS[Aad]T[Hyp]-NH2; disulfide 2-7) | A (A = >90%) | A (A = >90%) | B (B = 70-90%) | B (B = 70-90%) | 130 | 140 | FND | FND | FND
3 | CC[C@H](C)[C@@H](C(=O)N[C@@H](CC(C)C)C(=O)N[C@@H](CO)C(=O)N[C@@H](CO)C(=O)N[C@H](C(=O)N[C@@H](CCC(=O)O)C(=O)N[C@H](C(=O)NCC(=O)N[C@@H](CO)C(=O)N[C@@H](CC(N)=O)C(=O)N[C@H](C(=O)N1C[C@H](O)C[C@H]1C(N)=O)[C@@H](C)O)C(C)C)[C@@H](C)O)N(C)C(=O)[C@H](C)NC(=O)CN(C)C(=O)[C@H](Cc1ccccc1)NC(=O)[C@H](CO)NC(=O)[C@H](CO)NC(=O)[C@H](CCCNC(=N)N)NC(=O)[C@H](CCC(N)=O)NC(=O)[C@H](CC(C)C)NC(=O)[C@H](Cc1ccccc1)NC(=O)[C@H](CC(=O)O)NC(=O)[C@H](C)NC(=O)[C@H](CC(C)C)NC(=O)[C@H](CCCNC(=N)N)NC(=O)[C@H](CCC(=O)O)NC(=O)[C@@H](NC(=O)[C@H](C)NC(=O)[C@@H]1CSSC[C@H](NC(=O)[C@H](CCCNC(=N)N)NC(=O)CC[C@H](NC(=O)CCCCCCCCCCCCCCCCCCC(=O)O)C(=O)O)C(=O)NCC(=O)N[C@@H]([C@@H](C)O)C(=O)N[C@@H](C)C(=O)N[C@@H]([C@@H](C)O)C(=O)N1)[C@@H](C)O [Compound 54, [19CD]-isoGlu-R-C( )-GTAT-C( )-ATERLADFLQRSSF-Gly(Me)-A-Ile(Me)-LSSTEVGSNT-Hyp-NH2] ({C20 diacid-γGlu}-RCGTATCATERLADFLQRSSF[Sar]A[NMeI]LSSTEVGSNT[Hyp]-NH2; disulfide 2-7) | A (A = >90%) | A (A = >90%) | B (B = 70-90%) | B (B = 70-90%) | 140 | 80 | FND | FND | FND
4 | CC[C@H](C)[C@@H](C(=O)N[C@@H](CC(C)C)C(=O)N[C@@H](CO)C(=O)N[C@@H](CO)C(=O)N[C@H](C(=O)N[C@@H](CCC(=O)O)C(=O)N[C@H](C(=O)NCC(=O)N[C@@H](CO)C(=O)N[C@@H](CC(N)=O)C(=O)N[C@H](C(=O)N1C[C@H](O)C[C@H]1C(N)=O)[C@@H](C)O)C(C)C)[C@@H](C)O)N(C)C(=O)[C@H](C)NC(=O)CN(C)C(=O)[C@H](Cc1ccccc1)NC(=O)[C@H](CO)NC(=O)[C@H](CO)NC(=O)[C@H](CCCNC(=N)N)NC(=O)[C@H](CCC(N)=O)NC(=O)[C@H](CC(C)C)NC(=O)[C@H](Cc1ccccc1)NC(=O)[C@H](Cc1c[nH]cn1)NC(=O)[C@H](C)NC(=O)[C@H](CC(C)C)NC(=O)[C@H](CCCNC(=N)N)NC(=O)[C@H](CCC(=O)O)NC(=O)[C@@H](NC(=O)[C@H](C)NC(=O)[C@@H]1CSSC[C@H](NC(=O)[C@H](CCCNC(=N)N)NC(=O)CC[C@H](NC(=O)CCCCCCCCCCCCCCCCCCC(=O)O)C(=O)O)C(=O)N[C@@H](CC(N)=O)C(=O)N[C@@H]([C@@H](C)O)C(=O)N[C@@H](C)C(=O)N[C@@H]([C@@H](C)O)C(=O)N1)[C@@H](C)O [Compound 56, [19CD]-isoGlu-R-C( )-NTAT-C( )-ATERLAHFLQRSSF-Gly(Me)-A-Ile(Me)-LSSTEVGSNT-Hyp-NH2] ({C20 diacid-γGlu}-RCNTATCATERLAHFLQRSSF[Sar]A[NMeI]LSSTEVGSNT[Hyp]-NH2; disulfide 2-7) | A (A = >90%) | A (A = >90%) | A (A = >90%) | B (B = 70-90%) | 80 | 60 | FND | FND | FND
